Measurements as given in the supplement of paper PMC10307832.

Key:
Experiment in all cases: relative viability (nuclei count vs DMSO), 5 days (fraction); higher = more cells survive
GW-2580 + Pictilisib = compound: COC1=CC=C(C=C1)COC2=C(C=C(C=C2)CC3=CN=C(N=C3N)N)OC [GW-2580] + CS(=O)(=O)N1CCN(Cc2cc3nc(-c4cccc5[nH]ncc45)nc(N4CCOCC4)c3s2)CC1 [Pictilisib] (partner 1 µM)
In short: (§1)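 Nuclei were stained with Hoechst during a one-step fixation (final 0.05% Triton X-100, 1% formaldehyde, 1 ug/ml Hoechst) carried out 5 days after dosing, then counted on 4× images. The cells, lung cancer lines in 1536-well plates, had been dosed by pin tool the day after seeding with one drug alone or a fixed anchor-drug dose plus five library-drug doses (not always all listed) in √10 steps. Relative viability is the nuclei count in treated wells divided by that in vehicle wells, and each value is the median of duplicate plates.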

GW-2580 + AZD7762 = compound: COC1=CC=C(C=C1)COC2=C(C=C(C=C2)CC3=CN=C(N=C3N)N)OC [GW-2580] + NC(=O)Nc1cc(-c2cccc(F)c2)sc1C(=O)N[C@H]1CCCNC1 [AZD7762] (partner 0.2 µM)
In short: as §1

GW-2580 + Trametinib = compound: COC1=CC=C(C=C1)COC2=C(C=C(C=C2)CC3=CN=C(N=C3N)N)OC [GW-2580] + CC(=O)Nc1cccc(-n2c(=O)n(C3CC3)c(=O)c3c(Nc4ccc(I)cc4F)n(C)c(=O)c(C)c32)c1 [Trametinib] (partner 0.02 µM)
In short: as §1

Fedratinib + Phenformin = compound: Cc1cnc(Nc2ccc(OCCN3CCCC3)cc2)nc1Nc1cccc(S(=O)(=O)NC(C)(C)C)c1 [Fedratinib] + N=C(N)NC(=N)NCCc1ccccc1 [Phenformin] (partner 250 µM)
In short: as §1

GW-2580 + Linsitinib = compound: COC1=CC=C(C=C1)COC2=C(C=C(C=C2)CC3=CN=C(N=C3N)N)OC [GW-2580] + C[C@]1(O)C[C@@H](c2nc(-c3ccc4ccc(-c5ccccc5)nc4c3)c3c(N)nccn32)C1 [Linsitinib] (partner 1 µM)
In short: as §1

Cell Line	relative viability (GW-2580 + Pictilisib; first compound 0.08 µM)	relative viability (GW-2580 + Pictilisib; first compound 0.8 µM)	relative viability (GW-2580 + Pictilisib; first compound 2.53 µM)	relative viability (GW-2580 + Pictilisib; first compound 8 µM)	relative viability (GW-2580 + AZD7762; first compound 0.08 µM)	relative viability (GW-2580 + AZD7762; first compound 0.8 µM)	relative viability (GW-2580 + AZD7762; first compound 2.53 µM)	relative viability (GW-2580 + AZD7762; first compound 8 µM)	relative viability (GW-2580 + Trametinib; first compound 0.08 µM)	relative viability (GW-2580 + Trametinib; first compound 0.8 µM)	relative viability (GW-2580 + Trametinib; first compound 2.53 µM)	relative viability (GW-2580 + Trametinib; first compound 8 µM)	relative viability (Fedratinib + Phenformin; first compound 0.1 µM)	relative viability (Fedratinib + Phenformin; first compound 0.3162 µM)	relative viability (Fedratinib + Phenformin; first compound 1 µM)	relative viability (GW-2580 + Linsitinib; first compound 0.08 µM)	relative viability (GW-2580 + Linsitinib; first compound 0.8 µM)	relative viability (GW-2580 + Linsitinib; first compound 2.53 µM)	relative viability (GW-2580 + Linsitinib; first compound 8 µM)
NCI-H1975	0.294	0.325	0.29	0.29	0.829	0.805	0.598	0.815	0.34	0.38	0.306	0.275	0.416	0.407	0.37	1.19	0.931	0.89	0.875
CAL-12T	0.45	0.739	0.341	0.513	0.639	0.737	0.602	0.594	0.33	0.284	0.356	0.436	0.597	0.611	0.526	0.985	0.815	0.917	0.762
NCI-H1623													0.474	0.59	0.551				
HCC-44	0.688	0.717	0.582	0.619	0.994	1	1.03	0.999	1.04	1.06	0.986	0.959	0.123	0.293	0.163	0.736	0.759	0.628	0.687
EKVX	0.395	0.448	0.395	0.5	0.7	0.777	0.644	0.804	0.337	0.474	0.461	0.345	0.251	0.265	0.246	0.983	1.18	0.884	1.04
NCI-H1651	0.65	0.707	0.597	0.599	0.452	0.53	0.535	0.455	0.795	0.849	0.786	0.807	0.287	0.318	0.247	1.06	1.04	1	0.982
NCI-H1944	0.35	0.324	0.343	0.278	0.572	0.498	0.485	0.452	0.463	0.387	0.336	0.377	0.194	0.228	0.213	1.32	1.4	1.27	1.07
NCI-H1703	0.218	0.295	0.267	0.234	0.115	0.128	0.122	0.108								0.879	1.1	0.712	0.716
Calu-6	0.99	1.08	0.908	1.05												1.11	0.938	0.913	1.02
EBC-1	0.309	0.374	0.323	0.296												1.27	0.991	0.871	0.743
SW 1573	0.442	0.613	0.542	0.536					0.535	0.598	0.532	0.614	0.32	0.391	0.369	0.744	0.806	0.713	0.66
A-427	0.73	0.661	0.678	0.655	0.753	0.668	0.568	0.627	0.785	0.675	0.648	0.704	0.26	0.298	0.147	1.18	1.16	1.01	1.08
NCI-H2347	0.662	0.992	0.592	0.717	0.852	0.855	0.636	0.776	0.294	0.277	0.266	0.268	0.508	0.225	0.494	0.996	0.864	0.954	0.884
NCI-H1355	0.476	0.43	0.274	0.421	0.807	0.767	0.566	0.676	0.469	0.502	0.35	0.443	0.379	0.467	0.327	0.823	0.884	0.694	0.809
NCI-H358	0.356	0.32	0.28	0.308	0.588	0.604	0.516	0.363	0.149	0.139	0.131	0.132	0.304	0.323	0.252	0.888	0.849	0.707	0.684
PC-3 [JPC-3]	0.857	0.798	0.716	0.68	0.732	1.09	0.897	0.781	0.7	0.674	0.685	0.745	0.508	0.466	0.482	0.96	0.995	0.966	0.967
NCI-H2228	0.425	0.285	0.327	0.417					0.483	0.51	0.364	0.511	0.226	0.252	0.358	0.88	0.664	0.79	0.633
HOP-62	0.909	0.72	0.63	0.736	0.664	0.74	0.571	0.424	0.406	0.412	0.359	0.378	0.682	0.601	0.631	1.05	0.953	0.877	0.982
HARA	0.459	0.513	0.344	0.405	0.302	0.252	0.294	0.221	0.753	0.714	0.59	0.274	0.364	0.448	0.411	1.09	1.06	1.08	0.845
NCI-H838	0.569	0.462	0.326	0.614	0.976	0.998	0.92	0.986	0.576	0.514	0.411	0.632	0.468	0.67	0.414	1.14	1.19	1.01	1.06
NCI-H1755	0.489	0.461	0.321	0.372	0.483	0.486	0.448	0.405	0.786	0.838	0.777	0.702	0.561	0.593	0.518	1.05	1.17	0.955	0.761

Cell Line	relative viability (GW-2580 + Pictilisib; first compound 0.08 µM)	relative viability (GW-2580 + Pictilisib; first compound 0.8 µM)	relative viability (GW-2580 + Pictilisib; first compound 2.53 µM)	relative viability (GW-2580 + Pictilisib; first compound 8 µM)	relative viability (GW-2580 + AZD7762; first compound 0.08 µM)	relative viability (GW-2580 + AZD7762; first compound 0.8 µM)	relative viability (GW-2580 + AZD7762; first compound 2.53 µM)	relative viability (GW-2580 + AZD7762; first compound 8 µM)	relative viability (GW-2580 + Trametinib; first compound 0.08 µM)	relative viability (GW-2580 + Trametinib; first compound 0.8 µM)	relative viability (GW-2580 + Trametinib; first compound 2.53 µM)	relative viability (GW-2580 + Trametinib; first compound 8 µM)	relative viability (Fedratinib + Phenformin; first compound 0.1 µM)	relative viability (Fedratinib + Phenformin; first compound 0.3162 µM)	relative viability (Fedratinib + Phenformin; first compound 1 µM)	relative viability (GW-2580 + Linsitinib; first compound 0.08 µM)	relative viability (GW-2580 + Linsitinib; first compound 0.8 µM)	relative viability (GW-2580 + Linsitinib; first compound 2.53 µM)	relative viability (GW-2580 + Linsitinib; first compound 8 µM)
HCC-78	0.242	0.245	0.171	0.227	0.637	0.663	0.564	0.589	0.838	0.844	0.644	0.768	0.698	0.703	0.572	0.541	0.574	0.371	0.486
IA-LM	0.315	0.324	0.398	0.405												0.693	1.29	0.55	0.319
COR-L23	0.834	0.969	0.695	0.888					0.684	0.632	0.549	0.67	0.438	0.412	0.442	0.987	1.2	0.946	1.02
NCI-H2023	0.241	0.257	0.217	0.216					0.523	0.639	0.541	0.577	0.431	0.463	0.456	0.643	0.864	0.654	0.67
COR-L 105	0.36	0.404	0.353	0.375					0.404	0.409	0.418	0.442	0.398	0.429	0.433	1.03	0.807	0.929	1.01
NCI-H520	0.35	0.287	0.279	0.332					0.736	0.606	0.608	0.539	0.431	0.564	0.399	1.03	1.18	1.16	0.985
SK-LU-1	0.621	0.63	0.461	0.557					0.498	0.437	0.375	0.518	0.5	0.514	0.328	1.39	1.23	1.04	1.16
ChaGo-K-1	0.735	1.15	0.526	0.655	0.933	0.887	0.839	0.878	0.921	0.921	0.881	0.867	0.436	0.432	0.445				
NCI-H2342					0.585	0.481	0.497	0.444	0.805	0.889	0.783	0.83	0.674	0.537	0.634				
NCI-H1299	0.776	0.736	0.773	0.748												1.09	0.969	0.952	0.907
NCI-H1650	0.644	0.564	0.454	0.601					0.623	0.533	0.579	0.599		0.495	0.234				
NCI-H2009	0.924	0.982	0.652	0.809					0.284	0.262	0.266	0.273	0.334	0.486	0.419	1.14	1.21	1.18	1.06
SW 900					0.68	0.616	0.574	0.557	0.711	0.785	0.759	0.896	0.445	0.672	0.327				
SK-MES-1	0.34	0.381	0.355	0.324					0.585	0.491	0.522	0.503	0.511	0.644	0.532	1.12	1.14	1.01	1.09
NCI-H1648					0.713		0.778	0.583	0.416		0.405	0.439							
NCI-H522					0.903	0.806	0.873	0.872	0.804	0.673	0.656	0.753	0.588	0.585	0.661				
A549	0.575	0.491	0.486	0.303										0.169	0.165	0.678	0.701	0.501	0.602
NCI-H2170	0.316	0.353	0.304	0.287	0.982	0.864	0.723	0.837	0.994	1.01	0.924	0.857	0.333	0.402	0.386				
NCI-H661	0.343	0.377	0.321	0.361					0.678	0.566	0.516	0.504	0.269	0.287	0.304	0.493	0.615	0.419	0.439
NCI-H1563	0.686	0.661	0.655	0.642									0.658	0.693	0.637	1.19	1.27	1.1	1.08
ABC-1	0.761	0.564	0.571	0.679	0.836	0.941	0.717	0.829					0.265	0.23	0.209	0.791	0.816	0.883	0.718
